Laboratory results: patent publication US10046082B2, “Collagen sponge containing a drug for promoting fracture healing and method for preparing the same” (WUHAN VSD MEDICAL SCIENCE & TECHNOLOGY CO., LTD., priority 2015, dated 2018)
Marks after values point to notes of the source that are not given here.

Tests used:
[1] = system: fracture sites; experiment: Callus cross-sectional area in rabbit fracture healing experiment; assay type: in vivo, New Zealand rabbits; conditions: sponge placed at fracture site (IB group: 0.1 mg/kg IB after surgery), n=5
Experimental: (§1) 1.1. Experimental Animal: New Zealand rabbits, each being male and having a weight of about 2 to 3 kg (12 to 16 weeks old) were used
(§2) 1.2. Experimental Grouping and Materials: experiments were divided into a control group (Control), a collagen sponge (CS) group, an ibandronate sodium (0.1 mg/kg IB) group, a group with a small dosage of ibandronate sodium+collagen sponge (SIB+CS, 0.125 mg IB), a group with a median dosage of ibandronte sodium+collagen sponge (MIB+CS, 0.25 mg IB), and a group with a large dosage of ibandronate sodium+collagen sponge (LIB+CS, 0.5 mg IB), in total 6 groups. 10 experimental animals are used for each group, […].
(§3) Preparation of materials for the SIB+CS group: 125 μl of 1 mg/ml IB was added into 600 ml of the enzymolysis solution of collagen to prepare a 50*25*5 mm collagen sponge;
(§4) Preparation of materials for the MIB+CS group: 250 μl of 1 mg/ml IB was added into 600 ml of the enzymolysis solution of collagen to prepare a 50*25*5 mm collagen sponge;
(§5) Preparation of materials for the LIB+CS group: 500 μl of 1 mg/ml IB was added into 600 ml of the enzymolysis solution of collagen to prepare a 50*25*5 mm collagen sponge.
Male New Zealand rabbits were anesthetized by marginal ear vein injection with sodium pentobarbital (3%, […]). After the anesthesia, the skin in the surgical area was depilated with 8% sodium sulfide and disinfected. […]

[2] = system: tibia fracture sites of the rabbits; experiment: Three-point bending force test at fracture sites of the rabbits; assay type: in vivo, New Zealand rabbits; conditions: n=5
Experimental: as §1, §2, §3, §4, §5
Male New Zealand rabbits were anesthetized by marginal ear vein injection with sodium pentobarbital (3%, […]). After the anesthesia, the skin in the surgical area was depilated with 8% sodium sulfide and disinfected. The animals were fixed on their backs, and disinfected and covered with a sterile towel or sheet. A longitudinal incision was cut at the distal femur of the right leg near the patella. The patella was retracted to expose the inner and outer condyles of the distal femur. A 2 mm Kirschner wire was inserted retrogradely between the inner and outer condyles through an electric drill. The Kirschner wire went through the medullary cavity and came out of the skin from the proximal femur. The distal end of the Kirschner wire was cut off and ensured to be embedded under the surface of the knee joint. The knee was reset. An incision was made on the outer side of the distal femur, and the femur was exposed along the intermuscular space. Sufficient protection was provided for the surrounding soft tissues such as muscles and blood vessels. The femur was cut by a dental drill. The Control group and the IB group were not subjected to any treatment. The prepared materials for the CS group, the SIB+CS group, the MIB+CS group and the LIB+CS group were placed at the fracture sites of the animals, respectively. The incisions and the skin were washed with sterile normal saline and sutured with 5-0 nylon thread. Normal saline (0.1 ml/kg) and ibandronate sodium (0.1 ml/kg) were administered to the Control group and the IB group after surgery, respectively. All the animals were injected intramuscularly with buprenorphine (0.05 mg/kg) twice and with ciprofloxacin (10 mg/kg) once a day for 3 days after the surgery. All the animals were fed normally (lightless, quiet, at a temperature from 20 to 26° C., and at a humidity below 80%). X-ray photographs were taken on the day of surgery to check the condition of fracture apposition and alignment after the surgery. Further, half of the New Zealand rabbits were sacrificed at the 2nd week and the 4th week for detection, respectively.
3.2. Three-point bending force test at tibia fracture sites of the rabbits at the second week and the fourth week

CCCCCN(C)CCC(O)(P(=O)(O)O)P(=O)(O)O [IB, ibandronate sodium]
callus cross-sectional area (CSA) ([1]; 2nd week after surgery): 89.9 ± 3.6^a,h,i,j,k mm^2
callus cross-sectional area (CSA) ([1]; 4th week after surgery): 120.5 ± 7.8^a,h,i,j,k mm^2
Compressive Strength ([2]; 2nd week): 4.7 ± 1.8 Nmm
Elastic Modulus ([2]; 2nd week): 7.3 ± 2.2 MPa
Limit Load ([2]; 2nd week): 6.8 ± 1.7 N
Compressive Strength ([2]; 4th week): 64.6 ± 7.3^j Nmm
Elastic Modulus ([2]; 4th week): 88.2 ± 19.5 MPa
Limit Load ([2]; 4th week): 95.9 ± 7.04^i,j N
